The target of the experiment is T1, Tyrosine-protein kinase JAK3 (Homo sapiens, UniProt P52333).
T1 sequence (P52333 whole entry): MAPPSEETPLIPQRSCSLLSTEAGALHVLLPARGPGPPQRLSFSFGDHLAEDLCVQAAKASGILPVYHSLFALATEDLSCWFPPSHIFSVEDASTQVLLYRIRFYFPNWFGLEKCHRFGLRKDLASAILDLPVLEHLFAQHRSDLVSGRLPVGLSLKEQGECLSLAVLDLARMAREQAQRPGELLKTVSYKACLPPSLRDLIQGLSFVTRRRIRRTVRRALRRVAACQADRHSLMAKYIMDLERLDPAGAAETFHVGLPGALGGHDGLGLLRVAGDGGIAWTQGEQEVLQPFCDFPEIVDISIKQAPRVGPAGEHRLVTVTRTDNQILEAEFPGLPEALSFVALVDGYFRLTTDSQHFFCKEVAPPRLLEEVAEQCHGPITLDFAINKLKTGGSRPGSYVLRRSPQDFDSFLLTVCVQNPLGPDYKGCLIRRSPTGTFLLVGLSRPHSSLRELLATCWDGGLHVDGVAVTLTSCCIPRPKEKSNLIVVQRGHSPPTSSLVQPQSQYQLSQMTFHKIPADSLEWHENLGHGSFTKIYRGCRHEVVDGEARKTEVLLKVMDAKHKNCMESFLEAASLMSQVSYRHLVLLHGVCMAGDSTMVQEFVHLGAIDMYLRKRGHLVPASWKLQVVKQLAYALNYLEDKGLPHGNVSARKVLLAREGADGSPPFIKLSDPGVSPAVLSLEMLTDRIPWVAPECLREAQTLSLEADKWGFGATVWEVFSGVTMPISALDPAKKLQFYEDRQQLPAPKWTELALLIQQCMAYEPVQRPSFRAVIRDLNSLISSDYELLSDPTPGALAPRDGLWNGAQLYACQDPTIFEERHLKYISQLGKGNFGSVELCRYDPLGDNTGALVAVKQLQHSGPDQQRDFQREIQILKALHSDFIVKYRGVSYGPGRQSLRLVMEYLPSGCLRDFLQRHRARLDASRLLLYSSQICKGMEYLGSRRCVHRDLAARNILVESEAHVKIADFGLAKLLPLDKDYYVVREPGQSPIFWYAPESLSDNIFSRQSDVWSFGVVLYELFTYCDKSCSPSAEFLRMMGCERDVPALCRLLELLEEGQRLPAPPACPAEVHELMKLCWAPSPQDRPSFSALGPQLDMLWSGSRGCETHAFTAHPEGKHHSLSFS
Description: Inhibition of human recombinant GST-tagged JAK3 cytoplasmic domain (781 to 1124 residues) expressed in baculovirus expression system incubated for 1 hr by FRET-based Z'-Lyte assay.

Take `O=CC1=CCC[C@@H](C(=O)O)[C@@]2(C1)Oc1ccc(O)cc1C2=O`: the IC50 (in general, the midpoint of a concentration-inhibition curve) worked out at 34.8 µM. Consider `O=CC1=CCC[C@@H](C(=O)O)[C@]2(C1)Oc1ccc(O)cc1C2=O`, for which the IC50 stood at 7 µM.
